Results published in PubChem BioAssay (NCI).
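Method: 48-hour compound exposure of cells in 96-well plates, five concentrations, linear interpolation of endpoints. Definition used: TGI = concentration required for complete inhibition of growth.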

Columns and labels:
Test in all cases: NCI tumour cell line growth inhibition, 48 h
HOP-62 NSCLC = test system: HOP-62 NSCLC
OVCAR-4 ovarian = test system: OVCAR-4 ovarian
786-0 renal = test system: 786-0 renal
LOX IMVI melanoma = test system: LOX IMVI melanoma
SK-MEL-28 melanoma = test system: SK-MEL-28 melanoma
SF-539 CNS = test system: SF-539 CNS
NCI-H522 lung = test system: NCI-H522 lung
OVCAR-3 ovarian = test system: OVCAR-3 ovarian
SF-295 CNS = test system: SF-295 CNS
HCT-116 colon = test system: HCT-116 colon
CCRF-CEM leukemia = test system: CCRF-CEM leukemia
SNB-19 CNS = test system: SNB-19 CNS
SF-268 CNS = test system: SF-268 CNS
RXF 393 renal = test system: RXF 393 renal
UACC-62 melanoma = test system: UACC-62 melanoma
TK-10 renal = test system: TK-10 renal
M14 melanoma = test system: M14 melanoma
HCT-15 colon = test system: HCT-15 colon
SR leukemia = test system: SR leukemia
EKVX NSCLC = test system: EKVX NSCLC
UO-31 renal = test system: UO-31 renal
HCC-2998 colon = test system: HCC-2998 colon
PC-3 prostate = test system: PC-3 prostate
NCI-H460 lung = test system: NCI-H460 lung
UACC-257 melanoma = test system: UACC-257 melanoma
DU-145 prostate = test system: DU-145 prostate
NCI-H23 lung = test system: NCI-H23 lung
MDA-MB-231 breast = test system: MDA-MB-231 breast
MALME-3M melanoma = test system: MALME-3M melanoma
NCI-H226 lung = test system: NCI-H226 lung
MCF7 breast = test system: MCF7 breast
SN12C renal = test system: SN12C renal
A498 renal = test system: A498 renal
KM12 colon = test system: KM12 colon
SK-MEL-5 melanoma = test system: SK-MEL-5 melanoma
IGROV1 ovarian = test system: IGROV1 ovarian
SNB-75 CNS = test system: SNB-75 CNS
HT29 colon = test system: HT29 colon
NCI/ADR-RES ovarian = test system: NCI/ADR-RES ovarian
T-47D breast = test system: T-47D breast
SK-MEL-2 melanoma = test system: SK-MEL-2 melanoma
BT-549 breast = test system: BT-549 breast
COLO 205 colon = test system: COLO 205 colon
MOLT-4 leukemia = test system: MOLT-4 leukemia
MDA-N = test system: MDA-N
OVCAR-5 ovarian = test system: OVCAR-5 ovarian
OVCAR-8 ovarian = test system: OVCAR-8 ovarian
SW-620 colon = test system: SW-620 colon
MDA-MB-435 = test system: MDA-MB-435
CAKI-1 renal = test system: CAKI-1 renal
ACHN renal = test system: ACHN renal
HL-60(TB) leukemia = test system: HL-60(TB) leukemia
K-562 leukemia = test system: K-562 leukemia
A549 NSCLC = test system: A549 NSCLC
SK-OV-3 ovarian = test system: SK-OV-3 ovarian
HS 578T breast = test system: HS 578T breast
RPMI-8226 leukemia = test system: RPMI-8226 leukemia
U251 CNS = test system: U251 CNS
HOP-92 NSCLC = test system: HOP-92 NSCLC

Measured: TGI

O=[N+]([O-])c1ccc2nc(Cl)n[n+]([O-])c2c1
43.3 µM: NCI-H460 lung
27.2 µM: ACHN renal
31.3 µM: OVCAR-5 ovarian | U251 CNS
25.8 µM: NCI-H522 lung | HCT-116 colon
28.4 µM: PC-3 prostate
30.7 µM: SF-268 CNS | UO-31 renal | OVCAR-8 ovarian
24.9 µM: MDA-N
29.2 µM: SK-MEL-2 melanoma
47.3 µM: T-47D breast
26.9 µM: MDA-MB-435
25.2 µM: COLO 205 colon
> 61.5 µM: SNB-19 CNS
37.4 µM: SN12C renal
27.9 µM: UACC-62 melanoma
39 µM: EKVX NSCLC
20 µM: MCF7 breast
47.9 µM: SF-295 CNS
27.5 µM: M14 melanoma
9.1 µM: RPMI-8226 leukemia
2.74 µM: K-562 leukemia
30.3 µM: HCC-2998 colon
42.2 µM: NCI-H226 lung
28.2 µM: SNB-75 CNS
29.3 µM: UACC-257 melanoma
30.9 µM: HOP-62 NSCLC
49.1 µM: HT29 colon
26.8 µM: OVCAR-4 ovarian
5.23 µM: LOX IMVI melanoma
36.6 µM: NCI-H23 lung
29.7 µM: HCT-15 colon | BT-549 breast
3.34 µM: MOLT-4 leukemia
29.5 µM: MALME-3M melanoma
22.8 µM: 786-0 renal
30.8 µM: TK-10 renal
> 100 µM: HS 578T breast
51.8 µM: KM12 colon
35.5 µM: SW-620 colon
31.7 µM: DU-145 prostate
25.6 µM: IGROV1 ovarian
28.7 µM: RXF 393 renal
20.7 µM: SK-MEL-5 melanoma
60.1 µM: NCI/ADR-RES ovarian
28.3 µM: MDA-MB-231 breast
2.8 µM: CCRF-CEM leukemia
4.93 µM: SR leukemia
31.4 µM: SK-OV-3 ovarian
21.2 µM: A498 renal
42.6 µM: A549 NSCLC
30.1 µM: CAKI-1 renal
1.36 µM: HL-60(TB) leukemia
25.3 µM: SF-539 CNS
21.9 µM: OVCAR-3 ovarian
19.6 µM: HOP-92 NSCLC
34 µM: SK-MEL-28 melanoma

Oc1ccc2c(c1)CCc1c-2n(CCN2CCOCC2)c2ccc(O)cc12
39.6 µM: A498 renal
60.9 µM: IGROV1 ovarian
> 100 µM: HOP-62 NSCLC | 786-0 renal | LOX IMVI melanoma | SK-MEL-28 melanoma | SF-539 CNS | OVCAR-3 ovarian | SF-295 CNS | HCT-116 colon | CCRF-CEM leukemia | SNB-19 CNS | SF-268 CNS | RXF 393 renal | TK-10 renal | M14 melanoma | HCT-15 colon | SR leukemia | EKVX NSCLC | PC-3 prostate | NCI-H460 lung | UACC-257 melanoma | DU-145 prostate | MDA-MB-231 breast | NCI-H226 lung | MCF7 breast | SN12C renal | T-47D breast | BT-549 breast | COLO 205 colon | MOLT-4 leukemia | MDA-N | OVCAR-5 ovarian | SW-620 colon | MDA-MB-435 | CAKI-1 renal | HL-60(TB) leukemia | K-562 leukemia | SK-OV-3 ovarian | HS 578T breast | RPMI-8226 leukemia | U251 CNS
34.9 µM: UO-31 renal
75.6 µM: MALME-3M melanoma
70.9 µM: SK-MEL-2 melanoma
78.1 µM: SNB-75 CNS
90.3 µM: NCI-H23 lung
52.9 µM: KM12 colon
57.1 µM: OVCAR-8 ovarian
39 µM: SK-MEL-5 melanoma
55.5 µM: UACC-62 melanoma
53 µM: ACHN renal
48.3 µM: NCI/ADR-RES ovarian

Cc1ccc(S(=O)(=O)CN2C(=O)C(c3ccccc3)(c3ccccc3)C23OC(c2ccc(Cl)cc2)=CC3=O)cc1 (stereo not drawn)
> 10 µM: HOP-62 NSCLC | OVCAR-4 ovarian | 786-0 renal | LOX IMVI melanoma | SK-MEL-28 melanoma | SF-539 CNS | NCI-H522 lung | OVCAR-3 ovarian | SF-295 CNS | HCT-116 colon | CCRF-CEM leukemia | SNB-19 CNS | SF-268 CNS | RXF 393 renal | UACC-62 melanoma | TK-10 renal | M14 melanoma | HCT-15 colon | EKVX NSCLC | UO-31 renal | HCC-2998 colon | PC-3 prostate | NCI-H460 lung | UACC-257 melanoma | DU-145 prostate | NCI-H23 lung | MDA-MB-231 breast | MALME-3M melanoma | NCI-H226 lung | MCF7 breast | SN12C renal | A498 renal | KM12 colon | SK-MEL-5 melanoma | IGROV1 ovarian | SNB-75 CNS | HT29 colon | NCI/ADR-RES ovarian | T-47D breast | SK-MEL-2 melanoma | BT-549 breast | COLO 205 colon | MOLT-4 leukemia | MDA-N | OVCAR-5 ovarian | OVCAR-8 ovarian | SW-620 colon | MDA-MB-435 | CAKI-1 renal | ACHN renal | HL-60(TB) leukemia | K-562 leukemia | A549 NSCLC | SK-OV-3 ovarian | HS 578T breast | U251 CNS | HOP-92 NSCLC

CC(=O)Nc1ccc(NS(=O)(=O)c2ccc3nc(C)n(NS(=O)(=O)c4ccc(NC(C)=O)cc4)c(=O)c3c2)cc1
> 100 µM: HOP-62 NSCLC | OVCAR-4 ovarian | 786-0 renal | LOX IMVI melanoma | SK-MEL-28 melanoma | SF-539 CNS | NCI-H522 lung | OVCAR-3 ovarian | SF-295 CNS | HCT-116 colon | CCRF-CEM leukemia | SNB-19 CNS | SF-268 CNS | RXF 393 renal | UACC-62 melanoma | TK-10 renal | M14 melanoma | HCT-15 colon | SR leukemia | EKVX NSCLC | UO-31 renal | HCC-2998 colon | PC-3 prostate | NCI-H460 lung | UACC-257 melanoma | DU-145 prostate | NCI-H23 lung | MDA-MB-231 breast | MALME-3M melanoma | NCI-H226 lung | MCF7 breast | SN12C renal | A498 renal | KM12 colon | SK-MEL-5 melanoma | IGROV1 ovarian | SNB-75 CNS | HT29 colon | NCI/ADR-RES ovarian | T-47D breast | SK-MEL-2 melanoma | BT-549 breast | COLO 205 colon | MOLT-4 leukemia | MDA-N | OVCAR-5 ovarian | OVCAR-8 ovarian | SW-620 colon | MDA-MB-435 | CAKI-1 renal | ACHN renal | HL-60(TB) leukemia | K-562 leukemia | A549 NSCLC | SK-OV-3 ovarian | HS 578T breast | RPMI-8226 leukemia | U251 CNS | HOP-92 NSCLC
